Experiments:
[1] = target: JAK1 (recombinant purified GST-tagged catalytic domain) (Homo sapiens (Human), UniProt P23458); test: Jak Biochemical HTRF Assay (JAK1); conditions: [ATP] 31.8 μM
Method in brief: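 GST-tagged human catalytic domains of JAK1 or JAK2 phosphorylated a biotinylated peptide substrate for 120 min at room temperature after ATP addition. Reaction quenched with EDTA stop buffer containing streptavidin-Dylight 650 and Eu-pY20 antibody; HTRF 665/615 nm ratio normalized to untreated controls, IC50 from 4-parameter fit.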

[2] = target: JAK2 (recombinant purified GST-tagged catalytic domain) (Homo sapiens (Human), UniProt O60674); test: Jak Biochemical HTRF Assay (JAK2); conditions: [ATP] 8.5 μM
Chain of JAK2 (recombinant purified GST-tagged catalytic domain) (O60674 849-1124): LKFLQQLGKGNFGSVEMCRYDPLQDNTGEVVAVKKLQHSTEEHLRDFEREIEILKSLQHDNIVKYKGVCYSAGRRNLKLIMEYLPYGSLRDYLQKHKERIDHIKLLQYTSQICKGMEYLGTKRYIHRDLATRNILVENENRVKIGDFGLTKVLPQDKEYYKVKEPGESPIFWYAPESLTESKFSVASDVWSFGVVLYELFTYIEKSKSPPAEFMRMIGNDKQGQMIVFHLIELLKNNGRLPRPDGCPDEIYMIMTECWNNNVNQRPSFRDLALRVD

Chain of JAK1 (recombinant purified GST-tagged catalytic domain) (P23458 875-1153): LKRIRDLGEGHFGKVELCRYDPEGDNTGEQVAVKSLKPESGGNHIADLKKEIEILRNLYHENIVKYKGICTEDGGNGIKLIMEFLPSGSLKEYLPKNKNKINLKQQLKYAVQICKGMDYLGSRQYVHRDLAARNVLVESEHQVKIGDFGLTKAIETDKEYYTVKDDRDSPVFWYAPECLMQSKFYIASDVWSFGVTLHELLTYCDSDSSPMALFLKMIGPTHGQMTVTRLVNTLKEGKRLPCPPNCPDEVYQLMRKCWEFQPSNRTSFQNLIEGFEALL

Row | SMILES | IC50 [1] | IC50 [2]
1 | CC(C)(C)S(=O)(=O)c1ccc(Nc2nn(C3(CC#N)CCCC3)c3cc[nH]c(=O)c23)cc1 [Example 5-122, 2-(1-(3-((4-(tert-butylsulfonyl)phenyl)amino)-4-oxo-4,5-dihydro-1H-pyrazolo[4,3-c]pyridin-1-yl)cyclopentyl)acetonitrile] | 0.22 nM | 0.48 nM
2 | CN(C)S(=O)(=O)c1ccc(Nc2nn(C3(CC#N)CCCC3)c3cc[nH]c(=O)c23)cc1 [Example 5-123] | 0.23 nM | 0.46 nM
3 | N#CCC1(n2nc(Nc3ccc(C#N)cc3)c3c(=O)[nH]ccc32)CCCC1 [Example 5-124, 4-((1-(1-(cyanomethyl)cyclopentyl)-4-oxo-4,5-dihydro-1H-pyrazolo[4,3-c]pyridin-3-yl)amino) benzonitrile] | 0.58 nM | 3.69 nM
4 | N#CCC1(n2nc(Nc3ccc4c(c3)COC4=O)c3c(=O)[nH]ccc32)CCCC1 [Example 5-125, 2-(1-(4-oxo-3-((1-oxo-1,3-dihydroisobenzofuran-5-yl)amino)-4,5-dihydro-1H-pyrazolo[4,3-c]pyridin-1-yl)cyclopentyl)acetonitrile] | 0.27 nM | 2.71 nM
5 | CC(C)(C)OC(=O)c1ccc(Nc2nn(C3(CC#N)CCCC3)c3cc[nH]c(=O)c23)cc1 [Example 5-127, tert-butyl 4-((1-(1-(cyanomethyl)cyclopentyl)-4-oxo-4,5-dihydro-1H-pyrazolo[4,3-c]pyidin-3-yl)amino)benzoate] | 4.76 nM | 30.5 nM
6 | CNC(=O)c1ccc(Nc2nn(C3(CC#N)CCCC3)c3cc[nH]c(=O)c23)cc1 [Example 5-128, 4-((1-(1-(cyanomethyl)cyclopentyl)-4-oxo-4,5-dihydro-1H-pyrazolo[4,3-c]pyridin-3-yl)amino)-N-methylbenzamide.] | 0.22 nM | 2.24 nM
7 | CC(C)N1Cc2cc(Nc3nn(C4(CC#N)CCCC4)c4cc[nH]c(=O)c34)ccc2C1=O [Example 5-129, 2-(1-(3-((2-isopropyl-1-oxoisoindolin-5-yl)amino)-4-oxo-4,5-dihydro-1H-pyrazolo[4,3-c]pyridin-1-yl)cyclopentyl)acetonitrile] | 2.07 nM | 3.54 nM
8 | CNS(=O)(=O)c1ccc(Nc2nn(C3(CC#N)CCCC3)c3cc[nH]c(=O)c23)cc1 [Example 5-131, 4-((1-(1-(cyanomethyl)cyclopentyl)-4-oxo-4,5-dihydro-1H-pyrazolo[4,3-c]pyridin-3-yl)amino)-N-methylbenzenesulfonamide] | 0.25 nM | 0.98 nM
9 | N#CCC1(n2nc(Nc3ccc(S(=O)(=O)N4CCC4)cc3)c3c(=O)[nH]ccc32)CCCC1 [Example 5-132, 2-(1-(3-((4-(azetidin-1-ylsulfonyl)phenyl)amino)-4-oxo-4,5-dihydro-1H-pyrazolo[4,3-c]pyridin-1-yl)cyclopentyl)acetonitrile] | 0.39 nM | 0.68 nM
10 | CCS(=O)(=O)c1ccc(Nc2nn(C3(CC#N)CCCC3)c3cc[nH]c(=O)c23)cc1 [Example 5-133, 2-(1-(3-((4-(ethylsulfonyl)phenyl)amino)-4-oxo-4,5-dihydro-1H-pyrazolo[4,3-c]pyridin-1-yl)cyclopentyl) acetonitrile] | 0.44 nM | 1.38 nM
11 | CN(C(C)(C)C)S(=O)(=O)c1ccc(Nc2nn(C3(CC#N)CCCC3)c3cc[nH]c(=O)c23)cc1 [Example 5-134, N-(tert-butyl)-4-((1-(1-(cyanomethyl)cyclopentyl)-4-oxo-4,5-dihydro-1H-pyrazolo[4,3-c]pyridin-3-yl)amino)-N-methylbenzene sulfonamide] | 0.7 nM | 1.07 nM
12 | CCN(C(C)(C)C)S(=O)(=O)c1ccc(Nc2nn(C3(CC#N)CCCC3)c3cc[nH]c(=O)c23)cc1 [Example 5-135, N-(tert-butyl)-4-((1-(1-(cyanomethyl)cyclopentyl)-4-oxo-4,5-dihydro-1H-pyrazolo[4,3-c]pyridin-3-yl)amino)-N-ethylbenzene sulfonamide] | 0.98 nM | 1.53 nM
13 | CCN(CC)S(=O)(=O)c1ccc(Nc2nn(C3(CC#N)CCCC3)c3cc[nH]c(=O)c23)cc1 [Example 5-136, 4-((1-(1-(cyanomethyl)cyclopentyl)-4-oxo-4,5-dihydro-1H-pyrazolo[4,3-c]pyridin-3-yl)amino)-N,N-diethylbenzenesulfonamide] | 0.56 nM | 1.01 nM
14 | CN(C(C)(C)C(=O)OC(C)(C)C)S(=O)(=O)c1ccc(Nc2nn(C3(CC#N)CCCC3)c3cc[nH]c(=O)c23)cc1 [Example 5-137, tert-butyl 2-(4-((1-(1-(cyanomethyl)cyclopentyl)-4-oxo-4,5-dihydro-1H-pyrazolo[4,3-c]pyridin-3-yl)amino)-N-methylphenylsulfonamido)-2-methylpropanoate] | 1.9 nM | 5.85 nM
15 | N#CCC1(n2nc(Nc3ccc4c(c3)CN(CC(F)(F)F)C4=O)c3c(=O)[nH]ccc32)CCCC1 [Example 5-138, 2-(1-(4-oxo-3-((1-oxo-2-(2,2,2-trifluoroethyl)isoindolin-5-yl)amino)-4,5-dihydro-1H-pyrazolo[4,3-c]pyridin-1-yl)cyclopentyl)acetonitrile] | 0.31 nM | 1.51 nM
16 | CC(C)(C)OC(=O)C(C)(C)N1Cc2cc(Nc3nn(C4(CC#N)CCCC4)c4cc[nH]c(=O)c34)ccc2C1=O [Example 5-140, tert-butyl 2-(5-((1-(1-(cyanomethyl)cyclopentyl)-4-oxo-4,5-dihydro-1H-pyrazolo[4,3-c]pyridin-3-yl)amino)-1-oxoisoindolin-2-yl)-2-methylpropanoate] | 0.32 nM | 0.74 nM
17 | COC(=O)N1CCC(CC#N)(n2nc(Nc3ccc(C#N)cc3)c3c(=O)[nH]ccc32)CC1 [Example 5-145, methyl 4-(cyanomethyl)-4-(3-((4-cyanophenyl)amino)-4-oxo-4,5-dihydro-1H-pyrazolo[4,3-c]pyridin-1-yl)piperidine-1-carboxylate] | 0.19 nM | 1.22 nM
18 | COC(=O)N1CCC(CC#N)(n2nc(Nc3ccc(F)cc3)c3c(=O)[nH]ccc32)CC1 [Example 5-146, methyl 4-(cyanomethyl)-4-(3-((4-fluorophenyl)amino)-4-oxo-4,5-dihydro-1H-pyrazolo[4,3-c]pyridin-1-yl)piperidine-1-carboxylate] | 0.3 nM | 2 nM
19 | COC(=O)N1CCC(CC#N)(n2nc(Nc3ccc(C(F)(F)F)cc3)c3c(=O)[nH]ccc32)CC1 [Example 5-147, methyl 4-(cyanomethyl)-4-(4-oxo-3-((4-(trifluoromethyl)phenyl)amino)-4,5-dihydro-1H-pyrazolo[4,3-c]pyridin-1-yl)piperidine-1-carboxylate] | 0.32 nM | 2.95 nM
20 | COC(=O)N1CCC(CC#N)(n2nc(Nc3ccc4ncccc4c3)c3c(=O)[nH]ccc32)CC1 [Example 5-148, methyl 4-(cyanomethyl)-4-(4-oxo-3-(quinolin-6-ylamino)-4,5-dihydro-1H-pyrazolo[4,3-c]pyridin-1-yl)piperidine-1-carboxylate] | 0.08 nM | 0.84 nM
21 | COC(=O)N1CCC(CC#N)(n2nc(Nc3ccc(S(=O)(=O)C(C)C)cc3)c3c(=O)[nH]ccc32)CC1 [Example 5-149, methyl 4-(cyanomethyl)-4-(3-((4-(isopropylsulfonyl)phenyl)amino)-4-oxo-4,5-dihydro-1H-pyrazolo[4,3-c]pyridin-1-yl)piperidine-1-carboxylate] | 0.12 nM | 0.23 nM
22 | COC(=O)N1CCC(CC#N)(n2nc(Nc3ccc(S(=O)(=O)C(C)(C)C)cc3)c3c(=O)[nH]ccc32)CC1 [Example 5-150, methyl 4-(3-((4-(tert-butylsulfonyl)phenyl)amino)-4-oxo-4,5-dihydro-1H-pyrazolo [4,3-c]pyridin-1-yl)-4-(cyanomethyl)piperidine-1-carboxylate] | 0.1 nM | 0.14 nM
23 | Cc1cc(Nc2nn([C@@]3(CC#N)CCCC[C@H]3F)c3cc[nH]c(=O)c23)ccc1C(=O)N1CCOCC1 [Example 5-151, 2-((1R,2R)-2-fluoro-1-(3-((3-methyl-4-(morpholine-4-carbonyl)phenyl)amino)-4-oxo-4,5-dihydro-1H-pyrazolo[4,3-c]pyridin-1-yl)cyclohexyl)acetonitrile] | 0.09 nM | 0.1 nM
24 | N#CC[C@]1(n2nc(Nc3ccnc(F)c3)c3c(=O)[nH]ccc32)CCCC[C@H]1F [Example 5-152, 2-((1R,2R)-2-fluoro-1-(3-((2-fluoropyridin-4-yl)amino)-4-oxo-4,5-dihydro-1H-pyrazolo[4,3-c]pyridin-1-yl)cyclohexyl)acetonitrile] | 0.09 nM | 0.68 nM
25 | Cc1cc(Nc2nn([C@@]3(CC#N)CCCC[C@H]3F)c3cc[nH]c(=O)c23)ccc1C(=O)N1CCC(F)(F)CC1 [Example 5-153, 2-((1R,2R)-1-(3-((4-(4,4-difluoropiperidine-1-carbonyl)-3-methylphenyl)amino)-4-oxo-4,5-dihydro-1H-pyrazolo[4,3-c]pyridin-1-yl)-2-fluorocyclohexyl) acetonitrile] | 0.09 nM | 0.08 nM
26 | Cc1cc(Nc2nn([C@@]3(CC#N)CCCC[C@H]3F)c3cc[nH]c(=O)c23)ccc1C(=O)N1CCSCC1 [Example 5-154, 2-((1R,2R)-2-fluoro-1-(3-((3-methyl-4-(thiomorpholine-4-carbonyl)phenyl)amino)-4-oxo-4,5-dihydro-1H-pyrazolo[4,3-c]pyridin-1-yl)cyclohexyl)acetonitrile] | 0.09 nM | 0.08 nM
27 | Cc1cc(Nc2nn([C@]3(CC#N)CC[C@@H](C(=O)OC(C)(C)C)OC3)c3cc[nH]c(=O)c23)ccc1C(=O)N1CCSC1 [Example 5-155, (2S,5S)-tert-butyl 5-(cyanomethyl)-5-(3-((3-methyl-4-(thiazolidine-3-carbonyl)phenyl)amino)-4-oxo-4,5-dihydro-1H-pyrazolo[4,3-c]pyridin-1-yl)tetrahydro-2H-pyran-2-carboxylate] | 0.18 nM | 0.39 nM

From US9957264B2 (Merck Sharp & Dohme Corp., priority 2013, dated 2018)
